Test results: patent publication US20220133652A1, “A FORMULATION FOR IMPROVING SEIZURE CONTROL” (ZOGENIX INTERNATIONAL LIMITED, priority 2019, published 2022)

Columns and labels:
[1] = Serum samples of patient analyzed for fenfluramine and norfenfluramine; format: in vivo, human
Experimental: (§1) Fenfluramine was administered as an oral solution via a gastric feeding tube at an initial dose of 0.5 mg/kg/day for about 5 days. An echocardiogram was performed to screen for cardiac valve abnormalities (CVD) and/or pulmonary arterial hypertension (PAH) and to establish a baseline for subsequent echocardiograms which will be used to monitor the patient's cardiovascular status over the treatment period, and repeated approximately every 3 months over the next year of continuing fenfluramine administration. […] After 4 days of fenfluramine administration Patient was able to be weaned from general anesthesia without return to seizures and the immediate crisis resolved, however, seizures began to recur after 3 more days without anesthesia and the fenfluramine dosage was adjusted up to 0.8 mg/kg/day and bolus doses of valproate or phenobarbital were administered as needed. The treating physician assessed the patient as having emerged from the SRSE crisis about 2 weeks after initiation of fenfluramine therapy. The patient remains on fenfluramine, along with levetiracetam, clobazam and valproate, and was discharged from the ICU about 1 month (approximately 32 days) after initiation of fenfluramine therapy.

refractory epilepsy = conditions: dose of 0.5 to 1 mg/kg/day, children; cited from earlier work
[2] = tested on: self-induced photosensitive seizures; conditions: four cases; cited from earlier work
[3] = tested on: super-refractory status epilepticus; test: Case study: fenfluramine in patient in medically-induced coma, weaning from general anesthesia; format: in vivo, human
Experimental: Fenfluramine was tested on a patient with an established diagnosis Dravet Syndrome (DS) (February, 2008) and having undergone confirmatory genetic testing, they were hospitalized in November 2018 and had been in an intensive care unit (ICU) under general anesthesia for management of super-refractory status epilepticus. At the beginning of the testing period, they had been in the ICU for around 32 days, and multiple attempts to wean them from anesthetic agents (pentobarbital and ketamine) were unsuccessful, with repetitive and then continuous tonic seizures recurring within hours. Table 1, below, provides a complete list of all anti-epileptic drugs (AEDs) assayed in managing the patient's seizures. Some had been determined to lack efficacy, while those marked as current were still being administered.
After these other AEDs failed, the attending physician tested fenfluramine, beginning on Dec. 19, 2018. A baseline echocardiogram was taken with the patient still in ICU setting. The patient's medications (beyond anesthetic agents) at that time included valproic acid, levetiracetam, clobazam, phenobarbital, ketosis, and VNS therapy, and felbamate was most recently added after failure of the last attempt to withdraw anesthesia.
as §1

[4] = reason for withdrawal from the US market in 1997; cited from earlier work
[5] = tested on: pattern sensitivity-induced seizures; conditions: one child; cited from earlier work

Structure (SMILES)	concentration at 20 days after start of dosing ([1]; human, 0.8 mg/kg/day, SUB 001, Visit 1, Timepoint 99, SAE 8 Jan. 2019, fenfluramine oral solution via gastric feeding tube, read-out: Conc. in serum)	concentration at 21 days after start of dosing ([1]; human, 0.8 mg/kg/day, SUB 001, Visit 2, Timepoint 99, SAE 9 Jan. 2019, fenfluramine oral solution via gastric feeding tube, read-out: Conc. in serum)	concentration at 22 days after start of dosing ([1]; human, 0.8 mg/kg/day, SUB 001, Visit 3, Timepoint 99, SAE 10 Jan. 2019, fenfluramine oral solution via gastric feeding tube, read-out: Conc. in serum)	Effect on number of seizures (refractory epilepsy)	Response of self-induced photosensitive seizures to treatment [2]	Duration of administration after which patient was weaned from general anesthesia without return to seizures ([3]; 0.5 mg/kg/day oral solution via gastric feeding tube, adjunctive to other AEDs, one patient)	Time after initiation of therapy until patient assessed as emerged from the SRSE crisis ([3]; 0.5 then 0.8 mg/kg/day, bolus valproate or phenobarbital as needed)	Time without anesthesia until seizures began to recur ([3]; after weaning, at 0.5 mg/kg/day, dose then adjusted up to 0.8 mg/kg/day)	Seizure control in patients with SRSE ([3]; conclusion from the case of patient)	Time after initiation of therapy until discharge from the ICU ([3]; patient remains on fenfluramine with levetiracetam, clobazam and valproate)	Adverse effects associated with use [4]	Effect on self-induced seizures [5]	Conc. in serum ([1]; SUB 001, Visit 1, Timepoint 99, SAE 8 Jan. 2019, fenfluramine oral solution via gastric feeding tube)	Conc. in serum ([1]; SUB 001, Visit 2, Timepoint 99, SAE 9 Jan. 2019, fenfluramine oral solution via gastric feeding tube)	Conc. in serum ([1]; SUB 001, Visit 3, Timepoint 99, SAE 10 Jan. 2019, fenfluramine oral solution via gastric feeding tube)
CCNC(C)Cc1cccc(C(F)(F)F)c1 (racemic) [Fenfluramine, (RS)-N-ethyl-1-[3-(trifluoromethyl)phenyl]propan-2-amine]	0.0177 µg/mL	0.0178 µg/mL	0.0222 µg/mL	reduction in the number of seizures	responded to treatment	4 days	about 2 weeks	3 days	improved seizure control	approximately 32 days	cardiac valvular fibrosis and pulmonary hypertension	successfully terminated these self-induced seizures	–	–	–
CC(N)Cc1cccc(C(F)(F)F)c1 (stereo not drawn) [Norfenfluramine]	–	–	–	–	–	–	–	–	–	–	–	–	0.0238 µg/mL	0.0231 µg/mL	0.0276 µg/mL
